Counter-ions that a name gives are not always drawn.
molecular target: T1, BTK (Homo sapiens, UniProt Q06187); assay: In vitro BTK kinase assay: BTK-POLYGAT-LS assay; type: biochemical; conditions: 10 uM ATP, read-out: IC50 (10 uMATP)
T1 construct: purchased Upstate 14-552
T1 sequence (Q06187 whole entry): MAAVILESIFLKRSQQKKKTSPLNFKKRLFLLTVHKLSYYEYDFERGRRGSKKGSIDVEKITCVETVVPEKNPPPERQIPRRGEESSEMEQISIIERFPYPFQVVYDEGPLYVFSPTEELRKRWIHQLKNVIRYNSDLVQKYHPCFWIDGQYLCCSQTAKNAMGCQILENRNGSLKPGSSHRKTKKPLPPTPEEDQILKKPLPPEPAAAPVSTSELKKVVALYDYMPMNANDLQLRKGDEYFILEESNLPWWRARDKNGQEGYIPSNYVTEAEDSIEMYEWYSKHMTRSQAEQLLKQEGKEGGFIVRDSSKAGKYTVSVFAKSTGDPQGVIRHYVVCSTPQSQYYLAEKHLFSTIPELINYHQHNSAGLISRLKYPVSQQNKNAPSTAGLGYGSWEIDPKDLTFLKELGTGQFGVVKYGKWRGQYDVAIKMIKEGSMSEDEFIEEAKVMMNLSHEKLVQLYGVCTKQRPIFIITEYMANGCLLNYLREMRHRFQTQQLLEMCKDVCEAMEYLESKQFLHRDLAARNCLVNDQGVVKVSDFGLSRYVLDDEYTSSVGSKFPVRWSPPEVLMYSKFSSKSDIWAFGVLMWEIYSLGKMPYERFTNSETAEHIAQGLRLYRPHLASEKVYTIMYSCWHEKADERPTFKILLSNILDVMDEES

IC50 [nM] | Structure (SMILES)
100 to 999 | Cc1nc(C(=O)NC2CCCc3cc(-c4ncnc5[nH]ncc45)ccc32)sc1C (centres unmarked) [Example I-95, N-(6-(1H-pyrazolo[3,4-d]pyrimidin-4-yl)-1,2,3,4-tetrahydronaphthalen-1-yl)-4,5-dimethylthiazole-2-carboxamide]
10 to 99 | CC(C)(C)c1ccc(C(=O)NC2CCCc3cc(-c4ncnc5[nH]ccc45)ccc32)nc1 (centres unmarked) [Example I-15, N-(6-(7H-pyrrolo[2,3-d]pyrimidin-4-yl)-1,2,3,4-tetrahydronaphthalen-1-yl)-5-(tert-butyl)picolinamide]
1000 to 10000 | NC(=O)C(NC(=O)c1cc2c(s1)CCCC2)c1ccc(-c2ncnc3[nH]ncc23)cc1 (centres unmarked) [Example I-151, N-(1-(4-(1H-pyrazolo[3,4-d]pyrimidin-4-yl)phenyl)-2-amino-2-oxoethyl)-4,5,6,7-tetrahydrobenzo[b]thiophene-2-carboxamide]
100 to 999 | CC(C)(C)c1ccc(C(=O)NCc2ncc(-c3ncnc4[nH]ccc34)cc2Cl)nc1 [Example I-12]
10 to 99 | O=C(NCc1ccc(-c2ncnc3[nH]ccc23)cc1)c1cc2ccccc2s1 [Example I-61, N-(4-(7H-pyrrolo[2,3-d]pyrimidin-4-yl)benzyl)benzo[b]thiophene-2-carboxamide]
10 to 99 | O=C(NC1CCCc2cc(-c3ncnc4[nH]ccc34)ccc21)c1nc2c(s1)CCCC2 (centres unmarked) [Example I-17, N-(6-(7H-pyrrolo[2,3-d]pyrimidin-4-yl)-1,2,3,4-tetrahydronaphthalen-1-yl)-4,5,6,7-tetrahydrobenzo[d]thiazole-2-carboxamide]
10 to 99 | CC(C)(C)c1ccc(C(=O)NCc2cc(F)c(-c3ncnc4[nH]ccc34)cc2Cl)nc1 [Example I-13, 5-(tert-butyl)-N-(2-chloro-5-fluoro-4-(7H-pyrrolo[2,3-d]pyrimidin-4-yl)benzyl)picolinamide]
1000 to 10000 | Cc1c(-c2ncnc3[nH]ccc23)ccc2c1CCCC2NC(=O)c1ccc(C(C)(C)C)cc1 (centres unmarked) [Compound I-155]
10 to 99 | O=C(NCc1ccc(-c2ncnc3[nH]ccc23)cc1)c1cc2c(s1)CCCC2 [Example I-65, N-(4-(7H-pyrrolo[2,3-d]pyrimidin-4-yl)benzyl)-4,5,6,7-tetrahydrobenzo[b]thiophene-2-carboxamide]
< 10 | CC(C)(C)c1ccc(C(=O)NCc2ccc(-c3ncnc4[nH]c(-c5ccc(C(=O)N6CCOCC6)cc5)cc34)cc2)cc1 [Example I-111, 4-(tert-butyl)-N-(4-(6-(4-(morpholine-4-carbonyl)phenyl)-7H-pyrrolo[2,3-d]pyrimidin-4-yl)benzyl)benzamide]
100 to 999 | O=C(NC1CCCc2cc(-c3ncnc4[nH]ncc34)ccc21)c1ccc(C(F)(F)F)c(Cl)c1 (centres unmarked) [Example I-92, N-(6-(1H-pyrazolo[3,4-d]pyrimidin-4-yl)-1,2,3,4-tetrahydronaphthalen-1-yl)-3-chloro-4-(trifluoromethyl)benzamide]
10 to 99 | Cc1cc(-c2ncnc3nc(N4CCCC4C(=O)O)[nH]c23)ccc1CNC(=O)c1cnc(C(C)(C)C)s1 (centres unmarked) [Example I-55, 1-(6-(4-((2-(tert-butyl)thiazole-5-carboxamido)methyl)-3-methylphenyl)-7H-purin-8-yl)pyrrolidine-2-carboxylic acid]
100 to 999 | Cn1c(C(=O)NC2CCCc3cc(-c4ncnc5[nH]ncc45)ccc32)nc2ccccc21 (centres unmarked) [Example I-101, N-(6-(1H-pyrazolo[3,4-d]pyrimidin-4-yl)-1,2,3,4-tetrahydronaphthalen-1-yl)-1-methyl-1H-benzo[d]imidazole-2-carboxamide]
< 10 | Cn1cc(-c2cc3c(-c4ccc5c(c4)CCCCC5NC(=O)c4cnc(C(C)(C)C)s4)ncnc3[nH]2)cn1 (centres unmarked) [Example I-161, 2-(tert-butyl)-N-(2-(6-(1-methyl-1H-pyrazol-4-yl)-7H-pyrrolo[2,3-d]pyrimidin-4-yl)-6,7,8,9-tetrahydro-5H-benzo[7]annulen-5-yl)thiazole-5-carboxamide]
1000 to 10000 | CC(C)C(NC(=O)c1cc2c(s1)CCCC2)c1ccc(-c2ncnc3[nH]ncc23)cc1 (centres unmarked) [Example I-149, N-(1-(4-(1H-pyrazolo[3,4-d]pyrimidin-4-yl)phenyl)-2-methylpropyl)-4,5,6,7-tetrahydrobenzo[b]thiophene-2-carboxamide]
10 to 99 | CC(C)(C)c1ccc(C(=O)NCc2ccc(-c3ncnc4[nH]ccc34)cc2Cl)nc1 [Example I-5, 5-(tert-butyl)-N-(2-chloro-4-(7H-pyrrolo[2,3-d]pyrimidin-4-yl)benzyl)picolinamide]
100 to 999 | O=C(NCc1ccc(-c2ncnc3[nH]ccc23)cc1)c1ccc2c(n1)CCCC2 [Example I-58, N-(4-(7H-pyrrolo[2,3-d]pyrimidin-4-yl)benzyl)-5,6,7,8-tetrahydroquinoline-2-carboxamide]
10 to 99 | Cc1cc(-c2ncnc3[nH]ncc23)ccc1C(C)NC(=O)c1nc2c(s1)CCCC2 (centres unmarked) [Example I-127, N-(1-(2-methyl-4-(1H-pyrazolo[3,4-d]pyrimidin-4-yl)phenyl)ethyl)-4,5,6,7-tetrahydrobenzo[d]thiazole-2-carboxamide]

IC50 [nM] | Structure (SMILES)
100 to 999 | CCC(NC(=O)c1cc2c(s1)CCCC2)c1ccc(-c2ncnc3[nH]ncc23)cc1 (centres unmarked) [Example I-143, N-(1-(4-(1H-pyrazolo[3,4-d]pyrimidin-4-yl)phenyl)propyl)-4,5,6,7-tetrahydrobenzo[b]thiophene-2-carboxamide]
< 10 | Cn1cc(-c2cc3ncnc(-c4ccc5c(c4)CCCC5NC(=O)c4cnc(C(C)(C)C)s4)c3[nH]2)cn1 (centres unmarked) [Example I-37, 2-(tert-butyl)-N-(6-(6-(1-methyl-1H-pyrazol-4-yl)-5H-pyrrolo[3,2-d]pyrimidin-4-yl)-1,2,3,4-tetrahydronaphthalen-1-yl)thiazole-5-carboxamide]
10 to 99 | Cc1cc(-c2ncnc3[nH]ncc23)cnc1CNC(=O)c1cc2c(s1)CCCC2 [Example I-125, N-((3-methyl-5-(1H-pyrazolo[3,4-d]pyrimidin-4-yl)pyridin-2-yl)methyl)-4,5,6,7-tetrahydrobenzo[b]thiophene-2-carboxamide]
< 10 | Cc1cc(-c2ncnc3[nH]c(-c4cnn5c4CN(C)CC5)cc23)ccc1CNC(=O)c1cnc(C(C)(C)C)s1 [Example I-102, 2-(tert-butyl)-N-(2-methyl-4-(6-(5-methyl-4,5,6,7-tetrahydropyrazolo[1,5-a]pyrazin-3-yl)-7H-pyrrolo[2,3-d]pyrimidin-4-yl)benzyl)thiazole-5-carboxamide]
1000 to 10000 | O=C(NC1CCCc2cc(-c3ncnc4[nH]ncc34)ccc21)c1ccc(C(F)(F)F)cn1 (centres unmarked) [Example I-147, N-(6-(1H-pyrazolo[3,4-d]pyrimidin-4-yl)-1,2,3,4-tetrahydronaphthalen-1-yl)-5-(trifluoromethyl)picolinamide]
100 to 999 | O=C(NCc1ccc(-c2ncnc3[nH]ccc23)cc1)c1ccc(C(F)(F)F)cc1 [Example I-66, N-(4-(7H-pyrrolo[2,3-d]pyrimidin-4-yl)benzyl)-4-(trifluoromethyl)benzamide]
10 to 99 | O=C(NCc1ccc(-c2ncnc3[nH]ccc23)cn1)c1cc2c(s1)CCCC2 [Example I-71, N-((5-(7H-pyrrolo[2,3-d]pyrimidin-4-yl)pyridin-2-yl)methyl)-4,5,6,7-tetrahydrobenzo[b]thiophene-2-carboxamide]
10 to 99 | O=C(NCc1ccc(-c2ncnc3[nH]ncc23)cc1C(F)(F)F)c1nc2c(s1)CCCC2 [Example I-108, N-(4-(1H-pyrazolo[3,4-d]pyrimidin-4-yl)-2-(trifluoromethyl)benzyl)-4,5,6,7-tetrahydrobenzo[d]thiazole-2-carboxamide]
10 to 99 | CC(C)(C)c1ccc(C(=O)NCc2ccc(-c3ncnc4[nH]ccc34)cc2C(F)(F)F)nc1 [Example I-4, N-(4-(7H-pyrrolo[2,3-d]pyrimidin-4-yl)-2-(trifluoromethyl)benzyl)-5-(tert-butyl)picolinamide]
1000 to 10000 | CC(C)(C)c1ccc(C(=O)NCc2ccc(-c3ncnc4[nH]ccc34)cc2C(N)=O)nc1 [Example I-7, 5-(tert-butyl)-N-(2-carbamoyl-4-(7H-pyrrolo[2,3-d]pyrimidin-4-yl)benzyl)picolinamide]
10 to 99 | Cc1cc(-c2ncnc3[nH]ncc23)ccc1C(C)NC(=O)c1cnc(C(C)(C)C)s1 (centres unmarked) [Example I-128, 2-(tert-butyl)-N-(1-(2-methyl-4-(1H-pyrazolo[3,4-d]pyrimidin-4-yl)phenyl)ethyl)thiazole-5-carboxamide]
100 to 999 | C[C@@H](NC(=O)c1nc2c(s1)CCCC2)c1ccc(-c2ncnc3[nH]ccc23)cc1 [Example I-74, (R)—N-(1-(4-(7H-pyrrolo[2,3-d]pyrimidin-4-yl)phenyl)ethyl)-4,5,6,7-tetrahydrobenzo[d]thiazole-2-carboxamide]
10 to 99 | CCc1cc(-c2ncnc3[nH]ccc23)ccc1CNC(=O)c1ccc(C(C)(C)C)cc1 [Example I-10, 4-(tert-butyl)-N-(2-ethyl-4-(7H-pyrrolo[2,3-d]pyrimidin-4-yl)benzyl)benzamide]
< 10 | Cc1cc(-c2ncnc3[nH]c(-c4cnn5c4CNCC5)cc23)ccc1CNC(=O)c1cnc(C(C)(C)C)s1 [Example I-76, 2-(tert-butyl)-N-(2-methyl-4-(6-(4,5,6,7-tetrahydropyrazolo[1,5-a]pyrazin-3-yl)-7H-pyrrolo[2,3-d]pyrimidin-4-yl)benzyl)thiazole-5-carboxamide hydrochloride]
100 to 999 | CC(C)(C)c1ccc(C(=O)NC2CCCc3cc(-c4ncnc5[nH]ncc45)ccc32)cn1 (centres unmarked) [Example I-142, N-(6-(1H-pyrazolo[3,4-d]pyrimidin-4-yl)-1,2,3,4-tetrahydronaphthalen-1-yl)-6-(tert-butyl)nicotinamide]
10 to 99 | Cc1cc(-c2ncnc3cc(C4CCS(=O)(=O)CC4)n(C)c23)ccc1CNC(=O)c1cnc(C(C)(C)C)s1 [Example I-24, 2-(tert-butyl)-N-(4-(6-(1,1-dioxidotetrahydro-2H-thiopyran-4-yl)-5-methyl-5H-pyrrolo[3,2-d]pyrimidin-4-yl)-2-methylbenzyl)thiazole-5-carboxamide]
100 to 999 | O=C(NCc1ncc(-c2ncnc3[nH]ncc23)cc1F)c1cc2c(s1)CCCC2 [Example I-109, N-((3-fluoro-5-(1H-pyrazolo[3,4-d]pyrimidin-4-yl)pyridin-2-yl)methyl)-4,5,6,7-tetrahydrobenzo[b]thiophene-2-carboxamide]

From patent publication US10280169B2, “Biaryl bruton's tyrosine kinase inhibitors” (BIOGEN MA INC., priority 2013, dated 2019)
